Measurements published in patent EP1592418B1, “USE OF ENDOCANNABINOID-LIKE COMPOUNDS FOR TREATING CNS DEGENERATIVE DISORDERS” (Research & Innovation S.p.A., priority 2003, dated 2004).

Tests used:
[1] = Solubility (physico-chemical properties); assay type: physicochemical; conditions: for solubility: organic solvent or mixture, read-out: solubility in organic solvents
[2] = test system: Jurkat cells; test: Evaluation of cellular viability by MTT assay; assay type: cell-based, human; conditions: 10 µM, incubated 18-24 hr, MTT, absorbance 570 nm
Method: Jurkat, an acute T-lymphoblastic leukemia cell line generated from a person, have been used. Cell culture have been cultured in RPMI-1640 culture medium containing 10% FBS.
Jurkat cells were cultured at 1x10^5 cells/ml in RPMI 1640 medium supplemented with 10% fetal bovine serum (FBS), 2mM L-glutamine and 100 U/ml penicillin + 100 ug/ml streptomycin.
To detect drug effect in vitro, MTT [3-(4,5-dimethylthiazol-2-yl)-2,5-diphenyltetrazolium bromide] assay was used as described (Carmichael J et al., 1987 Cancer Res. 47, 936-42). Briefly, cells were seeded in triplicate on 96-well culture plates at a density of 20000 cells/well. The drugs were added in order to have the final concentration of 10 µM (1 µl of a solution of 10mM in DMSO) and incubated for 18-24 hr. Then MTT (0.5 mg/ml) was added to each well, and plates were incubated for an additional 1 to 3 hr in the dark at 37 °C. After this time the MTT solution was aspirated from the wells and 0.1 ml of DMSO was added. The plates were allowed to stand for 10 min, and then the absorbance was determined in a SpectraCount (Packard) microplate reader at 570 nm. The drug effect was determined by comparing absorbances of treated and untreated cells.

[3] = test system: reverse passive Arthus reaction, mouse ear pinna; test: Reverse passive Arthus reaction (RPA) in the mouse ear pinna: oedema and Evans blue extravasation; assay type: in vivo; conditions: mouse ear; for Extravasation / Riduction % (extravasation): 10 mg/Kg i.p.; for Extravasation: Evans blue density at 620 nm in ear homogenate supernatant, Vehicle 0,90±0,06, Naïve 0,04±0,01; for Oedema (mg): 10 mg/Kg intraperitoneally 1 hour before induction, weight increase of 8 mm punch vs contralateral ear, three hours after antigen, Vehicle 49,8 ± 1,2, Naive 23,7 ± 1,2; for Riduction % (extravasation): reduction of extravasation versus Vehicle (0)
Excerpt: The Arthus model (RPA) is a model of immune-complex mediated tissue damage that involves the passive subcutaneous introduction of an antibody and the systemic administration of the corresponding antigen. This inflammatory model has been used to test the in vivo activity of the synthesised molecules.
The reverse passive Arthus reaction is induced, in the mouse ear pinna, by the subcutaneous injection of an excess of IgG anti human albumin followed by i.v. adiministration of the corresponding Ag (i.e. human albumin) together with Evans blue, 2 mg for each mouse, for the evaluation of extravasation.
(§1) The tested molecules were solubilised in DMSO, cremophor and PBS in a ratio of 1:1:18 and administered usually by intraperitonelly at the dosage of 10 mg/Kg 1 hour before the induction of anafilactic reaction. The animals were sacrificed 3 hours after the molecule administration.
The oedema and the extravasations are evaluated tree hours after the i.v. administration of the antigen. The oedema is evaluated as the increase of weight of lesioned ear area dissected by a 8 mm biopsy punch as compared to the contralateral unlesioned auricular tissues. The extravasation is measured determining the Evans blue density at 620 nm in the supernatants deriving from ear homogenates following centrifugation at 10000 x g for 20 min.

[4] = Rectal temperature (central cannabinoid effect, hypothermia); assay type: in vivo, mouse; conditions: for ΔT (°C) rectal temperature: treated animals, Vehicle 0,1 ± 0,2
Method: as §1
TABLE 4. Rectal temperature in animals that have been treated with cannabinoids, endocannabinoids or molecules that are object of the present invention. Note a profound hypothermia induced by synthetic cannabinoid such as Win 55,212 or the endocannabinoid Anandamide while no alteration was induced by molecules that are object of the present invention.

SMILES: CCCCCCCCCCCCCC(=O)NC(C)C [Example 1, N-isopropyl-myristoyl amide]
- solubility ([1]; in DMSO and in chloroform): > 10000 µg/mL
- solubility in water [1]: scarcely soluble
- Growth inhibition (% of control) [2]: 55.0 % of control
- Extravasation [3]: 0,57±0,03
- Oedema (mg) [3]: 39,9 ± 2,1 mg
- Riduction % (extravasation) [3]: 36.7%
- ΔT (°C) rectal temperature [4]: 0,2 ± 0,3 °C

SMILES: CCCCCCCCCCCCCCCC(=O)NC(C)C [Example 2, N-isopropyl-palmitoyl amide]
- solubility ([1]; in DMSO and in chloroform): > 10000 µg/mL
- solubility in water [1]: scarcely soluble
- Growth inhibition (% of control) [2]: 55.6 % of control
- Extravasation [3]: 0,37±0,07
- Oedema (mg) [3]: 31,8 ± 1,8 mg
- Riduction % (extravasation) [3]: 58.9%
- ΔT (°C) rectal temperature [4]: 0,1 ± 0,1 °C

SMILES: CCCCCCCCCCCCCCCCCC(=O)NC(C)C [Example 4, N-Isopropyl-stearoyl amide]
- solubility ([1]; in DMSO and in chloroform): > 10000 µg/mL
- solubility in water [1]: scarcely soluble
- Growth inhibition (% of control) [2]: 45.3 % of control
- Extravasation [3]: 0,20±0,03
- Oedema (mg) [3]: 26,5 ± 0,9 mg
- Riduction % (extravasation) [3]: 77.8%
- ΔT (°C) rectal temperature [4]: 0,2 ± 0,1 °C

SMILES: CCCCCCCCCCCCCCCCNC(C)=O [Example 12, N-hexadecyl-acetyl-amide]
- solubility ([1]; in DMSO and in chloroform): > 10000 µg/mL
- solubility in water [1]: scarcely soluble
- Growth inhibition (% of control) [2]: 64.8 % of control
- Extravasation [3]: 0,72±0,03
- Oedema (mg) [3]: 41,5 ± 1,9 mg
- Riduction % (extravasation) [3]: 20.0%
- ΔT (°C) rectal temperature [4]: 0,2 ± 0,2 °C

SMILES: CCCCCCCCCCCCCCCC(=O)NC1CCCCC1 [Example 15, N-cyclohexyl-palmitoyl amide]
- solubility in organic solvents ([1]; in DMSO and in chloroform): >10 mg/ml in DMSO and in chloroform
- solubility in water [1]: scarcely soluble
- Growth inhibition (% of control) [2]: 63.2 % of control
- Extravasation [3]: 0,58±0,16
- Oedema (mg) [3]: 47,5 ± 4,2 mg
- ΔT (°C) rectal temperature [4]: 0,1 ± 0,1 °C

SMILES: CCCCCCCCCCCCCCCC(=O)NCC(C)C [Example 25, N-isobutyl-palmitoyl amide]
- solubility ([1]; in DMSO and in chloroform): > 10000 µg/mL
- solubility in water [1]: scarcely soluble
- Extravasation [3]: 0,72±0,07
- Oedema (mg) [3]: 42,4 ± 2.4 mg
- Riduction % (extravasation) [3]: 20.0%
- ΔT (°C) rectal temperature [4]: 0,3 ± 0,1 °C

SMILES: CCCCCCCCCCCCCCCC(=O)NC1CCC1 [Example 27, N-cyclobutyl-palmitoyl amide]
- solubility ([1]; in DMSO and in chloroform): > 10000 µg/mL
- solubility in water [1]: scarcely soluble
- Growth inhibition (% of control) [2]: 29.2 % of control
- Extravasation [3]: 0,39±0,11
- Oedema (mg) [3]: 38,5 ± 0.9 mg
- Riduction % (extravasation) [3]: 56.7%
- ΔT (°C) rectal temperature [4]: 0,1 ± 0,1 °C

SMILES: CCCCCCCCCCCCCCCCCC(=O)NCCCCC [Example 34, N- pentyl-stearoyl amide]
- solubility ([1]; in DMSO and in chloroform): > 10000 µg/mL
- solubility in water [1]: scarcely soluble
- Growth inhibition (% of control) [2]: 34.2 % of control
- Extravasation [3]: 0,62±0,08
- Oedema (mg) [3]: 42,5 ± 3.5 mg
- Riduction % (extravasation) [3]: 31.2%
- ΔT (°C) rectal temperature [4]: 0,1 ± 0,1 °C

SMILES: CCCCCCCCCCCCCCCC(=O)NCCC(C)C [Example 35, N-isopentyl-palmitoyl amide]
- solubility ([1]; in DMSO and in chloroform): > 10000 µg/mL
- solubility in water [1]: scarcely soluble
- Growth inhibition (% of control) [2]: 29.2 % of control
- Extravasation [3]: 0,58±0,09
- Oedema (mg) [3]: 38,3 ± 1.8 mg
- Riduction % (extravasation) [3]: 35.6%
- ΔT (°C) rectal temperature [4]: 0,3 ± 0,2 °C

SMILES: CCCCCCCCCCCCCCCCCC(=O)NCCC(C)C [Example 36, N-isopentyl-stearoyl amide]
- solubility ([1]; in DMSO and in chloroform): > 10000 µg/mL
- solubility in water [1]: scarcely soluble
- Growth inhibition (% of control) [2]: 30.2 % of control
- Extravasation [3]: 0,52±0,05
- Oedema (mg) [3]: 33,7 ± 3.2 mg
- Riduction % (extravasation) [3]: 42.7%
- ΔT (°C) rectal temperature [4]: 0,1 ± 0,1 °C

SMILES: CCCCCCCCCCCCCCCCCC(=O)NC1CCCC1 [Example 38, N-cyclopentyl-stearoyl amide]
- solubility ([1]; in DMSO and in chloroform): > 10000 µg/mL
- solubility in water [1]: scarcely soluble
- Growth inhibition (% of control) [2]: 31.8 % of control
- Extravasation [3]: 0,51±0,14
- Oedema (mg) [3]: 32,3 ± 3.3 mg
- Riduction % (extravasation) [3]: 43.4%
- ΔT (°C) rectal temperature [4]: 0,2 ± 0,2 °C

SMILES: CCCCCCCCCCCCCCCC(N)=O [Palmitoylamide]
- Growth inhibition (% of control) [2]: 33.9 % of control
- Extravasation [3]: 0,35±0,05
- Oedema (mg) [3]: 33,2 ± 0.7 mg
- Riduction % (extravasation) [3]: 61.2%
- ΔT (°C) rectal temperature [4]: 0,2 ± 0,1 °C

SMILES: CCCCCCCCCCCCCCCCCC(N)=O [Starylamide, stearylamide]
- Growth inhibition (% of control) [2]: 35.2 % of control
- Extravasation [3]: 0,31±0,08
- Oedema (mg) [3]: 30,8 ± 0.5 mg
- Riduction % (extravasation) [3]: 65.6%
- ΔT (°C) rectal temperature [4]: 0,3 ± 0,2 °C

SMILES: Cc1c(C(=O)c2cccc3ccccc23)c2cccc3c2n1[C@H](CN1CCOCC1)CO3 [WIN 55.212, reference compound]
- Growth inhibition (% of control) [2]: 79.2 % of control
- Extravasation [3]: 0,51 ±0,02
- Oedema (mg) [3]: 33,7 ± 4,6 mg
- Riduction % (extravasation) [3]: 43.5%
- rectal temperature (in words) ([4]; mouse, in vivo): drastic reduction
- ΔT (°C) rectal temperature [4]: -5,1 ± 1,3 °C
